According to ChEMBL document CHEMBL1201862, “PubChem BioAssay data set” (2004):
Activity calls are given as the source filed them.

Tests used:
[1] = tested on: HEK293; experiment: cells; format: functional, cell-based; conditions: Homo sapiens
[2] = target: T1, Nuclear receptor subfamily 0 group B member 1 (Homo sapiens, UniProt P51843); experiment: Luminescence-based cell-based high throughput dose response assay for inhibitors of the orphan nuclear receptor subfamily 0, group B, member 1 (DAX1; NR0B1). [Related pubchem assays (depositor defined):AID504766, AID504790]; format: functional
T1 sequence (P51843 whole entry): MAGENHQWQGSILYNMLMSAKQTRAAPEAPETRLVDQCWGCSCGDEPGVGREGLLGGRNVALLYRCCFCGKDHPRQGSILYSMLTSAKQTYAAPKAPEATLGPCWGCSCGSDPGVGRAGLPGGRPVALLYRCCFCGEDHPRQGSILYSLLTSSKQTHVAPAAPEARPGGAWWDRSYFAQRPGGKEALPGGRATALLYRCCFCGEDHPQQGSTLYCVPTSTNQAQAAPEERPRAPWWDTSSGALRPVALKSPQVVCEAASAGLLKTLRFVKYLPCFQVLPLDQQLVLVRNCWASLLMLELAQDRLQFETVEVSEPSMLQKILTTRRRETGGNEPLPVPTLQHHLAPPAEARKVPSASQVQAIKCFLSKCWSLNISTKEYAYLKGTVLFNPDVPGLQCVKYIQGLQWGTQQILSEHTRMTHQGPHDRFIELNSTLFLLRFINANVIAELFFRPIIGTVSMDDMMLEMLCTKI

[3] = target: T2, Cytochrome P450 1A2 (Homo sapiens, UniProt P05177);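 note: PubChem cytochrome P450 panel assay, CYP1A2 panel member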
T2 sequence (P05177 whole entry): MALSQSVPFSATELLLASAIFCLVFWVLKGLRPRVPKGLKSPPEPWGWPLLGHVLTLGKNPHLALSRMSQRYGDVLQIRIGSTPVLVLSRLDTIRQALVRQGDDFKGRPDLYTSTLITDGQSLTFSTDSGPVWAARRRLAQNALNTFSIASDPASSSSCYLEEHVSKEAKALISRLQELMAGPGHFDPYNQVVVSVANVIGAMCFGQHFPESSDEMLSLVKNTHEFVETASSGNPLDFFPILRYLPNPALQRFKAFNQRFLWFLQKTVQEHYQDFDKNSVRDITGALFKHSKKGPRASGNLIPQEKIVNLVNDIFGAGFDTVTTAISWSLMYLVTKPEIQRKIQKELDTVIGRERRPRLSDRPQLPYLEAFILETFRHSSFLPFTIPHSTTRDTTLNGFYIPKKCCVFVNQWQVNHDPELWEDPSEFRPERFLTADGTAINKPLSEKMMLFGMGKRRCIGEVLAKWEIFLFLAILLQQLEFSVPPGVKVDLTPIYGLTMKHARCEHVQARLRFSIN

[4] = target: Cytochrome P450 2D6 (Homo sapiens, UniProt P10635);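 note: CYP2D6 member of a cytochrome P450 panel assay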
[5] = target: T3, CAAX prenyl protease 2 (Saccharomyces cerevisiae S288c, UniProt Q03530); format: biochemical
T3 sequence (Q03530 whole entry): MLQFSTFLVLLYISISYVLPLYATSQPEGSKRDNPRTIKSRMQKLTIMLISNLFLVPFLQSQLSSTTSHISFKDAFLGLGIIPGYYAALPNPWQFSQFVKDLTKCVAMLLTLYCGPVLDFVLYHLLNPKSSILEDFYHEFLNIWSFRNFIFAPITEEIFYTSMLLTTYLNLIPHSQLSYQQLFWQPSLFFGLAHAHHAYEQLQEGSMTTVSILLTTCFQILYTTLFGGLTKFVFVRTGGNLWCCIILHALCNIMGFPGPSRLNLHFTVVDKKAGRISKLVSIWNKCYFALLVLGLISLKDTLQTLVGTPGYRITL

[6] = target: T4, Voltage-gated N-type calcium channel alpha-1B subunit/Amyloid beta A4 precursor protein-binding family A member 1 (Homo sapiens, UniProt Q00975+Q02410); format: protein assay
[7] = target: T4, Voltage-gated N-type calcium channel alpha-1B subunit/Amyloid beta A4 precursor protein-binding family A member 1; format: protein assay; remark: listed apart in the source
[8] = target: T5, Mannose-6-phosphate isomerase (Homo sapiens, UniProt P34949); experiment: PMI enzyme inhibitors, confirmation, biochemical, fluorescence intensity (AID 1535)
T5 sequence (P34949 whole entry): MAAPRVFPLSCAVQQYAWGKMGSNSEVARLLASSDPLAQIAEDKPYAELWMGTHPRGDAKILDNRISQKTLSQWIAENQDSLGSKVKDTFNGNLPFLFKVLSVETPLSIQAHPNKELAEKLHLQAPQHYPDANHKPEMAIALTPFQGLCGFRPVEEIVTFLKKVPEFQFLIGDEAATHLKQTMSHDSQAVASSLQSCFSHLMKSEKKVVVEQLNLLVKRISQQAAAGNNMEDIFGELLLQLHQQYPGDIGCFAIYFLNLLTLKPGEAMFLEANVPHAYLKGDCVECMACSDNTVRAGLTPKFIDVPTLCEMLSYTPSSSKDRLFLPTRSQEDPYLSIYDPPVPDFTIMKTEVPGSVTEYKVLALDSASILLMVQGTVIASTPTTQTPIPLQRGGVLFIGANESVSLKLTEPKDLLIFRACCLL

[9] = target: T6, Phosphomannomutase 2 (Homo sapiens, UniProt O15305); experiment: Counter screen SAR assay for PMM2 inhibitors via a fluorescence intensity assay. [Related pubchem assays (depositor defined):AID1545, AID1574]
T6 sequence (O15305 whole entry): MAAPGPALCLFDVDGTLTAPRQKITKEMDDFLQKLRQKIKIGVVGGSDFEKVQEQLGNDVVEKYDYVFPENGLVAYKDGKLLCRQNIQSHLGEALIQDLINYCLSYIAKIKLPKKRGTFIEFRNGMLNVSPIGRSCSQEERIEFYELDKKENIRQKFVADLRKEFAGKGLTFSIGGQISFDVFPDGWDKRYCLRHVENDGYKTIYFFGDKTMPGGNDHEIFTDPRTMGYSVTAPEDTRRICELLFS

[10] = target: T7, Phosphoethanolamine/phosphocholine phosphatase (Homo sapiens, UniProt Q8TCT1); experiment: SAR assay for compounds that inhibit PHOSPHO1. [Related pubchem assays (depositor defined):AID1545, AID1565, AID1574]
T7 sequence (Q8TCT1 whole entry): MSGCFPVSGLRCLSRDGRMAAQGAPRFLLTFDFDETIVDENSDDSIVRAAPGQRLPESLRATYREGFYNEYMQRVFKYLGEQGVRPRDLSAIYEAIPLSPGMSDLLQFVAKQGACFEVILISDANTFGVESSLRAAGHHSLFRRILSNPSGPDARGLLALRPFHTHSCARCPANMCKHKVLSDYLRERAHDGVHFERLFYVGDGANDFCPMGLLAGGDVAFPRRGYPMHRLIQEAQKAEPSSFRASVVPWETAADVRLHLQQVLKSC

[11] = target: Trypsin (Sus scrofa, UniProt P00761); experiment: porcine trypsin inhibitors, dose response, selectivity assay for Rce1 protease inhibitor project, biochemical, quenched peptide fluorescence, cherry-pick (AID 488789)
[12] = cytotoxicity in HMLE control line with eGFP shRNA, dose response, counter-screen for HMLE_sh_ECad selective toxicity project, cell-based, HMLE_sh_eGFP, luminescence (AID 463074); format: functional, Homo sapiens;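 note: HMLE human mammary epithelial cells expressing control shRNA against eGFP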
[13] = Luminescence Cell-Based Dose Retest to Confirm Inhibitors of Cancer Stem Cells. [Related pubchem assays (depositor defined):AID2717, AID2721]; format: functional; conditions: Homo sapiens
[14] = tested on: Streptococcus; experiment: Group A Streptococcus viability loss, dose response, counter-screen for streptokinase expression inhibitor project, luminescence, BacTiterGlo (AID 1915); format: functional, organism-based;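 note: potency for reduction of bacterial viability or growth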
[15] = tested on: Escherichia coli; experiment: microbe, parasite or virus in culture
[16] = tested on: Streptococcus sp. 'group A'; experiment: growth inhibition of control SK(-) GAS strain, dose response, counter-screen for streptokinase expression inhibitor project, luminescence, kanamycin, BacTiterGlo, confirmation (AID 1900); format: functional, organism-based
[17] = target: T8, Streptokinase A (Streptococcus pyogenes serotype M1, UniProt P10520); experiment: S. pyogenes streptokinase expression inhibitors, potency, dose response, plasminogen activation absorbance, OD405 (AID 1914); format: functional, Streptococcus pyogenes M1 GAS;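 note: secreted streptokinase activity via plasminogen activation per viability signal from cell pellet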
T8 sequence (P10520 whole entry): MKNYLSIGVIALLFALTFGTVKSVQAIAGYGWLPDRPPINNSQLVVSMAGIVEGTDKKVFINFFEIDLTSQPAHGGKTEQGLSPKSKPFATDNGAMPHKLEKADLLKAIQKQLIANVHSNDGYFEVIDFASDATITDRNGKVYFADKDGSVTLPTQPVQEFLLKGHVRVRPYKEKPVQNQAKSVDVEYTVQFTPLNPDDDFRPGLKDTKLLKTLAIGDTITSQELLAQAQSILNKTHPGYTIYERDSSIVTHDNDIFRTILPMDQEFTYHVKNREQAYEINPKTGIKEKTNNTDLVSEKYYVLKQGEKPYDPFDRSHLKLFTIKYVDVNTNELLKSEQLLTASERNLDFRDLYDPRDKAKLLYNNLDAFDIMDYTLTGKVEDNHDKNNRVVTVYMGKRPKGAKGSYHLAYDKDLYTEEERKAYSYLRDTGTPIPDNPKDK

T4 sequence (Q00975 whole entry): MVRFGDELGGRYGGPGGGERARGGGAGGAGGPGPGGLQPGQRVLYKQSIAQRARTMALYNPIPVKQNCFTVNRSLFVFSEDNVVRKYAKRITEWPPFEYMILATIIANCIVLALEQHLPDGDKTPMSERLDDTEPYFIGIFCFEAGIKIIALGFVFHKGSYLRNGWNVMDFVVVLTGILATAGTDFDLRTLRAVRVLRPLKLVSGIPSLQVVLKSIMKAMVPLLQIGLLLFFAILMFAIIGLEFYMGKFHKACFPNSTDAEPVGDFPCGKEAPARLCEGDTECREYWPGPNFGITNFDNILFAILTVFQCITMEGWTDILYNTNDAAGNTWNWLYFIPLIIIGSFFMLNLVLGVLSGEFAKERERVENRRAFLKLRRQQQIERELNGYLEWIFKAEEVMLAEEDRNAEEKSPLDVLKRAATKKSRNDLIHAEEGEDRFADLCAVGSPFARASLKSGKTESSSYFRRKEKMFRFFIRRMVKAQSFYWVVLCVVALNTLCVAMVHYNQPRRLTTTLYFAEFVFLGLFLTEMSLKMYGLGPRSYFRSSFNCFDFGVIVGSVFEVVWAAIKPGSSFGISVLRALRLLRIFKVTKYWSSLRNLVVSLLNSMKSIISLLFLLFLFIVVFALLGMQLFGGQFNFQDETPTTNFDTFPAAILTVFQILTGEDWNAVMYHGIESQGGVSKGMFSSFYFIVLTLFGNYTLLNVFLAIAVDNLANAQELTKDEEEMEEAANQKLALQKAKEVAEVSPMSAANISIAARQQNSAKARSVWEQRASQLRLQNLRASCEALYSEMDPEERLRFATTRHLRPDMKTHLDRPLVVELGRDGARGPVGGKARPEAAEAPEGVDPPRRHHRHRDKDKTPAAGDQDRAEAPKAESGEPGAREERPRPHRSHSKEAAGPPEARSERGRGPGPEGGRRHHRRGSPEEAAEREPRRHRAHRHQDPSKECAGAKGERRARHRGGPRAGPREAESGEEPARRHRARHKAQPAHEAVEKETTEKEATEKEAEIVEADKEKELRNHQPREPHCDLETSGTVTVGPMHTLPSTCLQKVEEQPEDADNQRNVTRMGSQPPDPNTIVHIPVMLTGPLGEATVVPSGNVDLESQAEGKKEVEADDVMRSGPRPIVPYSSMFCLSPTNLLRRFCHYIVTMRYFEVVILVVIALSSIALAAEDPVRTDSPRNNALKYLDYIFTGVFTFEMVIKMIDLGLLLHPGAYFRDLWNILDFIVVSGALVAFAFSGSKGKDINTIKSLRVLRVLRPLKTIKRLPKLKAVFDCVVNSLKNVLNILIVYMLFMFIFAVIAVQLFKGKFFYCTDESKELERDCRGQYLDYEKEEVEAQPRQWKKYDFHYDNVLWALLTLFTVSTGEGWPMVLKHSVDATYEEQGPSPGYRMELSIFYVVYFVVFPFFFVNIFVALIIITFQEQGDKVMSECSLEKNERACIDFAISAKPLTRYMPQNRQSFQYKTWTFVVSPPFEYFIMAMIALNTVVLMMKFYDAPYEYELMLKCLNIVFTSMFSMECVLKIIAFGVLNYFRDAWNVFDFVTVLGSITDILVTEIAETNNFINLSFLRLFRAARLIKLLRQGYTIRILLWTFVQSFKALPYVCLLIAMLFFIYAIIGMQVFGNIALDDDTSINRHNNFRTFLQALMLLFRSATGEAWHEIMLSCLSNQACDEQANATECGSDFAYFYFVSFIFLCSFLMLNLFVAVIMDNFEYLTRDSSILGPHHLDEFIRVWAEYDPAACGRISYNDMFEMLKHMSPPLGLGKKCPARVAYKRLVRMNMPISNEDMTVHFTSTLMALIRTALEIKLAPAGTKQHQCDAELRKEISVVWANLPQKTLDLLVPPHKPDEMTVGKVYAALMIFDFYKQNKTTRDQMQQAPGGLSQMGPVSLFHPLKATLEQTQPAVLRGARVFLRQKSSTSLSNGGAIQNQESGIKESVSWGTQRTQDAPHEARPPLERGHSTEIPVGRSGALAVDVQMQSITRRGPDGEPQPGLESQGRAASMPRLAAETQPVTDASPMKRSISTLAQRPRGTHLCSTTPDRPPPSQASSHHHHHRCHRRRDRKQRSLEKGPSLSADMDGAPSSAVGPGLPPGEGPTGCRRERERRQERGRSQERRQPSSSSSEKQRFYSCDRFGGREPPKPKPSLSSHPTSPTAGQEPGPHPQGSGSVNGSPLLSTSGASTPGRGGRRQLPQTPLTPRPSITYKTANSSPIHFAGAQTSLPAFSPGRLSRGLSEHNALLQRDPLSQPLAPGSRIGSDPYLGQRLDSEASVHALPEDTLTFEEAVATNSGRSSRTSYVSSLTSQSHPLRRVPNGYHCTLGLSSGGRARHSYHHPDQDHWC
T4 sequence (Q02410 whole entry): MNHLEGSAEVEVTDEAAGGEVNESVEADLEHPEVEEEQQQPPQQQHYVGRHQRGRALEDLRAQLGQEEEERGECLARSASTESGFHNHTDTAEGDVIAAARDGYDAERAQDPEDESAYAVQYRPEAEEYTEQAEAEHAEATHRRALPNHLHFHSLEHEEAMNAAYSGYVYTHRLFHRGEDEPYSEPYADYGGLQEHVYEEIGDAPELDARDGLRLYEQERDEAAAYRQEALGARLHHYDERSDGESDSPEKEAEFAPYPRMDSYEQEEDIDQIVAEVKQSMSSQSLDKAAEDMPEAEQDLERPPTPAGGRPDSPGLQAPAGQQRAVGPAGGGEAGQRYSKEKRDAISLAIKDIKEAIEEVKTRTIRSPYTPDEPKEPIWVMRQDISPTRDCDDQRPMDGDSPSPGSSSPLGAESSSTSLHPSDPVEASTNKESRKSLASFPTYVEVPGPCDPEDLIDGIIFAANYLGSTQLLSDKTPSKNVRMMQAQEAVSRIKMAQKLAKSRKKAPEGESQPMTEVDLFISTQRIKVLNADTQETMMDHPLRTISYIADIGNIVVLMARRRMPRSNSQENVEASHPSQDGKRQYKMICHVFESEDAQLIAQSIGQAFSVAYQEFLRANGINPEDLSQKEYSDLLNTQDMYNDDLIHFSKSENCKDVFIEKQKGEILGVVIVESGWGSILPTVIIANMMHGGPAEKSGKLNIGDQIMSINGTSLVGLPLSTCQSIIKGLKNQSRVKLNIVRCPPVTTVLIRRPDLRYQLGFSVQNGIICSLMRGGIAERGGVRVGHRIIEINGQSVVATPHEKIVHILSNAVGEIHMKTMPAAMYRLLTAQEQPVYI
Cytochrome P450 2D6, sequence (P10635 whole entry): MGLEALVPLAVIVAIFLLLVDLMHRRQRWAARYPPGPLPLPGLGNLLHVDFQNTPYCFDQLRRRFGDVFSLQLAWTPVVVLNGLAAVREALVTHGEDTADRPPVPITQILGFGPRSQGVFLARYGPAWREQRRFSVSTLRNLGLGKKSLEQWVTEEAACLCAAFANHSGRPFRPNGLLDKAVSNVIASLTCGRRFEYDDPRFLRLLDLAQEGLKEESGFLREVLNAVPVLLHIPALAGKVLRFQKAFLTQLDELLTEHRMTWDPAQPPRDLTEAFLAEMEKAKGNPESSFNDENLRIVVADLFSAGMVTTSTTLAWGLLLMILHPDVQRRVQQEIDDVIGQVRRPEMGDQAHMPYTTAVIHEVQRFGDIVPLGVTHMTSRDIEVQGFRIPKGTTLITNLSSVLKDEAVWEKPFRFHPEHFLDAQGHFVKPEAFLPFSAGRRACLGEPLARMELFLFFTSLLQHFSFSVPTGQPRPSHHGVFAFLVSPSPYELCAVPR
Trypsin, sequence (P00761 whole entry): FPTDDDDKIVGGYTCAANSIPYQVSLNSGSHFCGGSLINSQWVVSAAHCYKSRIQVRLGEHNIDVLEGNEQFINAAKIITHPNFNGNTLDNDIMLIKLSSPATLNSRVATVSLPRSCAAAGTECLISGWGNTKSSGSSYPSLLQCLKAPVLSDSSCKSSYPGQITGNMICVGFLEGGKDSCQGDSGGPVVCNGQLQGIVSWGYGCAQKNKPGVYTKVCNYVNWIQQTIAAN

Q: With `Cc1cccc(CN2CCN(C(S)=Nc3ccccc3)CC2)c1` as the compound, how does the IC50 [1] read?
A: Its IC50 is > 67.6 µM (inactive).

Q: And the IC50 [2]?
A: Its IC50 is > 67.6 µM (inactive).

Q: With `COc1ccc2c(c1)c(CC(=O)O)c(C)n2C(=O)c1ccccc1` as the compound, how does the AC50 [3] read?
A: The AC50 was 12.6 µM (inconclusive).

Q: What about the AC50 [4] of the same compound?
A: Its AC50 is “inconclusive”.

Q: For `COCc1c(C(=O)N/N=C/C2CC=CCC2)nnn1-c1nonc1N` (stereo unspecified), which AC50 [5] is on record?
A: Its AC50 is 29.9 µM (active).

Q: With `Cc1cccnc1NC(=S)Nc1ccc(F)cc1F` as the compound, how does the IC50 [6] read?
A: The IC50 was 11.5 µM (active).

Q: And the IC50 [7]?
A: The IC50 was > 50 µM (inactive).

Q: With `Cc1cccc(-n2sc3ccccc3c2=O)c1` as the compound, how does the IC50 [8] read?
A: The IC50 was 5.29 µM (active).

Q: What about the IC50 [9] of the same compound?
A: Its IC50 is 22.3 µM (active).

Q: What about the IC50 [10] of the same compound?
A: The IC50 was 2.73 µM (inactive).

Q: Which IC50 [8] does the source give for `Cc1cccc(-n2sc3cc(F)ccc3c2=O)c1C` here?
A: Its IC50 is 22.7 µM (active).

Q: What about the IC50 [9] of the same compound?
A: The IC50 was 18.3 µM (active).

Q: What about the IC50 [10] of the same compound?
A: The IC50 was 6.54 µM (inactive).

Q: For `CCOC(=O)c1cc(-c2ccc(F)cc2)nc2c1c(=O)[nH]c(=O)n2Cc1ccccc1`, which IC50 [6] is on record?
A: The IC50 was > 56.8 µM (not active).

Q: And the IC50 [7]?
A: Its IC50 is > 50 µM (inactive).

Q: What does the source list for `CC1CCN(C(=O)c2cc3nc(-c4ccccc4)cc(-c4ccccc4)n3n2)CC1`?
A: AC50 [11]: > 100 µM (inactive); AC50 [5]: 19.1 µM (active)

Q: For `C=CCn1/c(=N/C(=O)c2ccc(S(=O)(=O)N3CCCc4ccccc43)cc2)sc2cc(S(N)(=O)=O)ccc21`, which AC50 [12] is on record?
A: Its AC50 is 84.8 µM (active).

Q: What about the AC50 [13] of the same compound?
A: Its AC50 is 2.01 µM (active).

Q: For `Cc1c(Cl)cccc1-n1sc2cc([N+](=O)[O-])cc(OCC(F)(F)F)c2c1=O`, which IC50 [8] is on record?
A: The IC50 was 3.03 µM (active).

Q: What about the IC50 [9] of the same compound?
A: The IC50 was 9.06 µM (active).

Q: What about the IC50 [10] of the same compound?
A: Its IC50 is 0.555 µM (active).

Q: With `C=CCN(CC=C)S(=O)(=O)c1ccc(NC(=S)NC(=O)C2CC2)cc1` as the compound, how does the EC50 [14] read?
A: Its EC50 is > 150 µM (not active).

Q: And the AC50 [15]?
A: The AC50 was 29.4 µM (active).

Q: And the EC50 [16]?
A: The EC50 was > 150 µM (not active).

Q: What about the EC50 [17] of the same compound?
A: Its EC50 is > 150 µM (not active).
